The values below come from PMC10644342, “Improved Antibacterial Activity of 1,3,4-Oxadiazole-Based Compounds That Restrict Staphylococcus aureus Growth Independent of LtaS Function” (ACS Infectious Diseases, 2023).

The term MIC denotes the smallest concentration in the dilution series that meets the test's criterion for growth inhibition. A low value points to greater potency.

One data set relates to E. faecalis (JH2-2). The data set can be described thus: MIC, broth microdilution (CLSI). The format is cell-based. Particulars: Enterococcus faecalis. How it is done:
(§1) S. aureus, S. epidermidis, E. faecalis, and E. faecium strains were routinely cultivated on tryptic soy agar (TSA) and grown for 18 h at 37 °C. S. aureus single colonies were subsequently transferred into 2 mL of tryptic soy broth (TSB) and grown for a further 18 h at 37 °C while being shaken at 180 rpm. S. pyogenes, S. agalactiae, and S. dysgalactiae strains were routinely cultured on TSA supplemented with 5% sheep blood and grown for 18 h at 37 °C with 5% CO2. E. coli was grown in LB broth at 37 °C. For LtaS-deficient strains, TSB was supplemented with 0.5 M NaCl to provide an osmotically balanced environment and instead grown at 30 °C. For strains harboring the pRMC2 tetracycline inducible vector,[61] the growth medium was supplemented with 10 μg/mL chloramphenicol and […] anhydrotetracycline hydrochloride (Sigma). Phenylalanine-arginine β-naphthylamide (PAβN) (Sigma) was dissolved in sterile water.
(§2) B. subtilis, staphylococcal, and enterococcal strains were grown in Mueller Hinton broth (MHB), while streptococcal strains were grown in MHB supplemented with 5% laked horse blood. All strains were grown for 18 h at 37 °C. The overnight cultures were subsequently subcultured 1:200 and grown to the exponential phase (OD600nm = 0.5–0.6) in fresh broth. 1771 and its derivatives 9–14 were reconstituted in DMSO and further diluted by performing a 1:2 serial dilution ranging between 256 and 0.125 μg/mL in a 96-well microtiter plate. One hundred microliters of 0.5 McFarland standardized inoculum (approximately equal to 5 × 10^5 cfu) were then dispensed into each well in the 96-well microtiter plate. The plate was incubated for 18 h at 37 °C.
Background: Dilution methods test growth across graded concentrations, often in twofold steps.

The next data set relates to E. faecium (C68). The experiment in a line: MIC, broth microdilution (CLSI). The format is cell-based. Particulars: Enterococcus faecium. How it is done:
as §1, §2

A further data set relates to S. dysgalactiae. The data set can be described thus: MIC, broth microdilution (CLSI). The class given is cell-based. Particulars: Streptococcus dysgalactiae. How it is done: as §1, §2
The test system of the next data set is S. pyogenes. The data set can be described thus: MIC, broth microdilution (CLSI). The class given is cell-based. Particulars: Streptococcus pyogenes. How it is done: as §1, §2
The test system of a further data set is erythrocytes. The experiment in a line: Erythrocyte toxicity (hemolysis) assay. The format is cell-based, human. Particulars: concentrations as high as 256 μg/mL, 1 h, 37 °C. As for the experimental part:
Consent was collected from three healthy volunteers prior to blood collection and in accordance with the recommendations of the University of Bath, Research Ethics Approval Committee for Health Blood (EP 18/19108). Blood was collected by venepuncture and drawn directly into K2-EDTA-coated Vacutainer tubes (BD Biosciences) to prevent coagulation. The blood was then pelleted at 500g for 10 min at 4 °C, and the plasma layer was removed. The remaining hematocrit was resuspended to the original volume in a sterile saline solution. This procedure was repeated three times and finally resuspended in sterile PBS and diluted to 2% (v/v). One hundred microlitres of the resulting blood suspension were aliquoted in a 96-well microtire plate. An equal volume of either 1771 or 13 (diluted in PBS) was then added at a concentration range of 256–2 μg/mL and incubated for 1 h at 37 °C. Blood incubated with PBS served as a negative control, and total hemolysis (positive control) was provided by incubating the cells in 2% (v/v) Triton X-100. Following incubation, the 96-well microtire plate was pelleted at 500g for 5 min, and 100 μL of supernatant was transferred into a new plate. Absorbance at abs404nm was measured using a Sunrise plate reader, and percentage hemolysis was calculated according to controls.

For data set [1], the system named is Pseudomonas aeruginosa strain PAO1. The experiment in a line: Growth inhibition in combination with PAβN. The class given is cell-based. Particulars: 32 μg/mL compound with 100 μg/mL PAβN. As for the experimental part:
Phenylalanine-arginine β-naphthylamide (PAβN) is a well-studied efflux pump inhibitor, which can also permeabilize the outer membrane of Gram-negative organisms.[40] […] Without the addition of PAβN (0 μg/mL), neither 1771 nor 13 had any growth inhibitory activity at concentrations up to 64 μg/mL. With the addition of 25 μg/mL of PAβN, the E. coli strain K12 could still grow in the presence of 64 μg/mL of 1771 or 13; however, the growth rate was severely impacted in a dose-dependent manner. […] To further evaluate the Gram-negative coverage of 1771 and 13, we also tested 1771 or 13 in combination with PAβN against Pseudomonas aeruginosa strain PAO1, Klebsiella pneumoniae strain 699 (clinical isolate), and Acinetobacter baumannii strain DF1000 (clinical isolate) (Figure S6a–c).
Figure S6. Permeabilization of the outer membrane renders Gram-negative bacteria susceptible to 1771 and compound 13. Bacterial growth curves of A) Klebsiella pneumoniae, B) Acinetobacter baumannii and C) Pseudomonas aeruginosa against 1771 and 13 (0 – 64 µg/ml) in combination with 0, 25, 50, 100 µg/ml of PAβN. The bacterial growth (OD 600nm) was […]
(1 picture or pasted object on this page, not shown here)

For data set [2], the system named is MRSA strains LAC and EMRSA-15. The data set can be described thus: Serial passage resistance study. The class given is cell-based, Staphylococcus aureus. Particulars: 25 days serial passage, after 14 days, then stable for 11 days. How it is done: plotted against time following 18 hours of growth at 37 °C. The icons represent the mean of three biological replicates.
Supplementary Materials and Methods
Synergistic activity with clinically relevant antibiotics
The synergistic ability of 1771 and 13 was achieved using the chequerboard micro-broth dilution method. Antibiotic partners tested included: oxacillin, daptomycin, vancomycin, gentamicin, and linezolid with starting concentrations of 256 µg/ml, 8 µg/ml, 8 µg/ml, 4 µg/ml, and 8 µg/ml respectively. Overnight cultures were sub-cultured 1:200 in fresh MHB and grown to optical density of OD600nm of 0.5-0.6 and prepared according to the MIC analysis. Following an 18 h incubation at 37 °C the sum of the fractional inhibitory […]
using the equation ΣFIC = FICA +FICB = (MICA in combination with B/MICA) + (MICB in combination with A/MICB). The resulting value was interpreted according to the following rules: synergistic (FIC ≤ 0.5), additive (FIC >0.5, <1) or indifferent (FIC ≥ 1 <4).
Serial passage resistance study
A serial passage in 1771 was performed using MRSA strains, LAC and EMRSA-15. For this assay, 15 ml tubes were filled with 3 ml of MHB and varying concentrations of 1771. The tubes containing either LAC or EMRSA-15 were incubated at 37 °C for 24 h before each passage. […]

For the next data set, the system named is LTA. Further details: method as in PMID 23401520. Particulars: cited from earlier work.
For another data set, the system named is LtaS. Further details: method as in PMID 29300473. Particulars: LtaS in artificial liposomes; cited from earlier work.
Setting [3] is: NCTC10238, S. dysgalactiae (NCTC 10238).
[4] abbreviates: NCTC13762, S. dysgalactiae (NCTC 13762).
The mark [5] stands for this setting: NCTC8198, S. pyogenes (NCTC 8198).
[6] abbreviates: NCTC12048, S. pyogenes (NCTC 12048).

SMILES strings stand for the structures. ≈ marks a conversion by molar mass, not a printed value.

For `O=C(COC(=O)Cc1coc2ccc3ccccc3c12)Nc1nnc(-c2ccc(S(F)(F)(F)(F)F)cc2)o1` [Compound 13, 2-Oxo-2-((5-(4-(pentafluoro-l6-sulfaneyl)phenyl)-1,3,4-oxadiazol-2-yl)amino)ethyl 2-(Naphtho[2,1-b]furan-1-yl)acetate], the MIC was 2 µg/mL (≈ 3.61 µM) with E. faecalis (JH2-2); over 128 µg/mL against E. faecium (C68); 64 µg/mL (≈ 116 µM) against S. dysgalactiae (setting [3]); 64 µg/mL (≈ 116 µM) in the data set on S. dysgalactiae (setting [4]); 16 to 32 µg/mL (≈ 28.9 to 57.8 µM) against S. pyogenes (setting [5]); 64 µg/mL (≈ 116 µM) in the data set on S. pyogenes (setting [6]). Besides, the erythrocyte lysis entry in the data set with erythrocytes is given as “neither caused any lysis”. Also, the “growth of PAO1” value in data set [1] was “severely inhibited”.
In the case of `O=C(COC(=O)Cc1coc2ccc3ccccc3c12)Nc1nnc(-c2ccccc2)o1` [Compound 1771, 2-Oxo-2-((5-phenyl-1,3,4-oxadiazol-2-yl)amino)ethyl 2-(Naphtho[2,1-b]furan-1-yl)acetate, reference compound], the MIC is 16 µg/mL (≈ 37.4 µM) in the data set with E. faecalis (JH2-2); over 128 µg/mL in the data set with E. faecium (C68); over 128 µg/mL against S. dysgalactiae (setting [3]); 128 µg/mL (≈ 299 µM) in the data set on S. dysgalactiae (setting [4]); 32 to 64 µg/mL (≈ 74.9 to 150 µM) against S. pyogenes (setting [5]); 128 µg/mL (≈ 299 µM) in the data set on S. pyogenes (setting [6]). In addition, the erythrocyte lysis entry with erythrocytes is given as “neither caused any lysis”. Besides, the “change of MIC on serial passage” value in [2] is recorded as “increased twofold”. Further, the LTA signal entry in the data set with LTA is on record as “dose-dependent reduction in the LTA signal”. Besides, the “inhibition of LtaS polymerization activity” value in the data set with LtaS is “did not show inhibitory activity”.
